We go through two compounds from patent EP0336230B1, “Cyclic peptide antagonists of Substance P and Substance K” (FUJISAWA PHARMACEUTICAL CO., LTD., priority 1988, dated 1989).

Numbered stars: 1 amine (or outer) side, 2 acyl side, 3 side chain; on linkers, the order of the positions; unused ones are H or OH. Bridge positions count the residues as written; N and C are the ends. Square brackets hold non-standard residues; d marks the D form. Peptide text beside a SMILES is read from it. * marks the point of attachment. Cinnamoyl(2-(1Z-pentenyl)) = CCC/C=C\c1ccccc1/C=C/C(=O)*; X3 = CC(=O)Oc1ccc(/C=C(\C(=O)[*:2])N(C)[*:1])cc1; X1 = CN(/C(=C/c1ccc(O)cc1)C(=O)[*:2])[*:1]; aThr = C[C@H](O)[C@H](N)C(=O)O; X2 = CCCCCc1ccccc1CCC(=O)*

Data set [1] deals with T1, specific [^3H] substance P binding to guinea pig lung membranes (Cavia porcellus, UniProt P30547).
T1 construct: from tissue; host or cells: guinea pig trachea and lung, crude membrane fraction
Kind of data set: ^3H-substance P binding to preparative membranes (guinea pig lung). The conditions noted are these: ^3H-Substance P 1nM, 4°C, 30 minutes, read-out: IC50 (M), displacement of specific [^3H] substance P binding.
Description: (a) Crude membrane preparation
Male albino Hartley strain guinea pigs (600 g) were sacrificed by decapitation. The trachea and lungs were removed, and stored at -80°C until use. These tissues (150 g) were thawed and homogenized in 500 ml buffer (0.25 M sucrose, 50 mM Tris-HCℓ pH 7.5, 0.1 mM EDTA) with a compact mixer (Matsuden MJ-761). The tissue was homogenized with a Ultra-Disperser (Yamato MODEL LK-21) at a setting of maximum range for 10-s at 10-s intervals with cooling between homogenizations (total homogenization's time : 60 seconds). The homogenate was centrifuged (900 x g for 10 min.) to remove tissue clumps and the supernatant centrifuged at 14000 x g for 20 min. to yield pellets which were referred to as crude membrane fractions. The pellets were resuspended in Medium I, homogenized with a teflon homogenizer and centrifuged at 14000 x g for 20 min. The pellets were stored at -20°C.
(b) ^3H-substance P binding to preparative membranes
^3H-Substance P (1nM, New England Nuclear) was incubated with 50 µℓ of the membrane preparation in medium I at 4°C for 30 minutes in a final volume of 250 µℓ. […] The radioactivity was counted in 3 ml of Aquazol-2 in Packard sintillation counter (Packard TRI-CARB 4530).

A short description of data set [2]: Solubility in solvents (physical and chemical properties). The data set is classed as physicochemical. As to the method:
The obtained product was triturated from diethyl ether to give triacetyl-WS-9326A (332 mg) as a colorless powder. Physical and chemical properties of the triacetyl-WS-9326A are as follows. […] (23)/(D) [formula] : -122° (C=1.0, MeOH) (6) Ultraviolet Absorption Spectrum : λ (MeOH)/(max) [formula] = 283 nm (ε=32,000) (7) Molecular Formula : C60H74N8O16 (8) Elemental Analysis : […]

T1 sequence (P30547 whole entry): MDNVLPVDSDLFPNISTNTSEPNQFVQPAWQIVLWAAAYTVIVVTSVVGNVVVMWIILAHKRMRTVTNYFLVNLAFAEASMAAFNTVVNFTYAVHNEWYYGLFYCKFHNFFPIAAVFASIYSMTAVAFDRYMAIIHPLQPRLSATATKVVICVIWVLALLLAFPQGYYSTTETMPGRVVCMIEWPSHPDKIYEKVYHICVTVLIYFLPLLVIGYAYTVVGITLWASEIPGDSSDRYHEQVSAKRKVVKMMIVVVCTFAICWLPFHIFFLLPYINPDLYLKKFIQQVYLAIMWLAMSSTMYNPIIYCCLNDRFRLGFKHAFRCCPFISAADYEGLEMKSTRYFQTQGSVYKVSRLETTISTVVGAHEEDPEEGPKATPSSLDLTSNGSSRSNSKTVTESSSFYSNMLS

As a reminder, the IC50 is the midpoint of a concentration-inhibition curve. Take `CCCCCc1ccccc1CCC(=O)N[C@@H]1C(=O)N(C)/C(=C/c2ccc(O)cc2)C(=O)N[C@@H](CC(C)C)C(=O)N[C@H](Cc2ccccc2)C(=O)N[C@@H]([C@H](C)O)C(=O)N[C@@H](CC(N)=O)C(=O)N[C@@H](CO)C(=O)O[C@@H]1C` [Tetrahydro-WS-9326A] (X2-T[X1]L[dF][aThr]NS; ester 1-C): the half-maximal inhibitory concentration (IC50) in data set [1] came out at 4.2e-07 M.
For `CCC/C=C\c1ccccc1/C=C/C(=O)N[C@@H]1C(=O)N(C)/C(=C/c2ccc(OC(C)=O)cc2)C(=O)N[C@@H](CC(C)C)C(=O)N[C@H](Cc2ccccc2)C(=O)N[C@@H]([C@H](C)OC(C)=O)C(=O)N[C@@H](CC(N)=O)C(=O)N[C@@H](COC(C)=O)C(=O)O[C@@H]1C` [triacetyl-WS-9326A] ({Cinnamoyl(2-(1Z-pentenyl))}-T[X3]L[dF][aThr](Ac)NS(Ac); ester 1-C), the Solubility result in data set [2] (chloroform) was “Sparingly Soluble”; in data set [2] (diethyl ether), “Sparingly Soluble”; in data set [2] (dimethyl sulfoxide), “Soluble”; in data set [2] (methanol), “Soluble”; in data set [2] (n-hexane) it was “Insoluble”.
